In general, IC50 refers to the concentration that inhibits the measured activity by half. Higher therefore signals lower potency.

Three compounds from article PMC7570671, “Synthesis and Biological Evaluation of Novel Benodanil-Heterocyclic Carboxamide Hybrids as a Potential Succinate Dehydrogenase Inhibitors” (Molecules, 2020) can be followed below.

The target in the experiment is T1, succinate dehydrogenase (SDH) from mitochondria of R. solani (Rhizoctonia solani, UniProt A0A0K6FYZ3+A0A0K6G4J6+A0A0K6G6J3).
T1 construct: gene sdhB; native complex II in isolated mitochondria, not purified; with Succinate dehydrogenase [ubiquinone] flavoprotein subunit, mitochondrial
T1 sequence (A0A0K6FYZ3 29-278): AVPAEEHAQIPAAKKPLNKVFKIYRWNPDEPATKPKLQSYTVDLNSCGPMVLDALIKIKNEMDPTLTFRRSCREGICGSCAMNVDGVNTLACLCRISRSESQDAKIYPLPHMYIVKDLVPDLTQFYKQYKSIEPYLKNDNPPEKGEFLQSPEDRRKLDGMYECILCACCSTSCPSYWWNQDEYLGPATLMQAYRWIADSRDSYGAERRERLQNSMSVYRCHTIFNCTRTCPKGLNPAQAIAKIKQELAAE
T1 sequence (A0A0K6G4J6 37-154): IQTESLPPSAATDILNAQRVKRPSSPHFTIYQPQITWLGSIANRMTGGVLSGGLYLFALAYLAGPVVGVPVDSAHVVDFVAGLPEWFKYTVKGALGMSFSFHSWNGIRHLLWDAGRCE
T1 sequence (A0A0K6G6J3 32-176): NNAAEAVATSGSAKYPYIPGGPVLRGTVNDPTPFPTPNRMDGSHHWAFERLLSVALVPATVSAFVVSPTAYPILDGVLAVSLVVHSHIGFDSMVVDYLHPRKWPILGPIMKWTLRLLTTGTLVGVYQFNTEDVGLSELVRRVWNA
T1 sequence (A0A0K6G1V0 48-643 partner): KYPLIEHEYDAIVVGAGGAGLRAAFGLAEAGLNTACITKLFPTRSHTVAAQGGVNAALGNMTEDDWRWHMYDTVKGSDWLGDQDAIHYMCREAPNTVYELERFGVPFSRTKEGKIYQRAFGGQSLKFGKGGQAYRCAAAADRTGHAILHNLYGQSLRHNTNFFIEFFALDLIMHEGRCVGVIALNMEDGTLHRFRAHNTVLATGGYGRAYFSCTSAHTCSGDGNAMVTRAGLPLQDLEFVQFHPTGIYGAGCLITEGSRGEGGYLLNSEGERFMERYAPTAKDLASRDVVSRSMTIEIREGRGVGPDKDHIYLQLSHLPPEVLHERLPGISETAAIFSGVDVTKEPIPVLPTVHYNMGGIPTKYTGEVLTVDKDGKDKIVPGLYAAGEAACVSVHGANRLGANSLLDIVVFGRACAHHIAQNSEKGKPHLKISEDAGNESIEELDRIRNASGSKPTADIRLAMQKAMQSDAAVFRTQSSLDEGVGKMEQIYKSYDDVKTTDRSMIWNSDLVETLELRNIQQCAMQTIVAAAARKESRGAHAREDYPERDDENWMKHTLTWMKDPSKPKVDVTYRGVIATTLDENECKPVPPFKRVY
Briefly: succinate:ubiquinone/DCPIP reductase inhibition in isolated mitochondria, absorbance at […] nm. In kind it is biochemical.

In turn, `O=C(Nc1ccccc1)c1ccccc1I` [benodanil] showed an IC50 of 192 µM.

`CC(C)c1cccc(NC(=O)c2ccccc2NC(=O)c2cn(C)nc2C(F)F)c1` [compound 17] had an IC50 of 127 µM.

`Cn1cc(C(=O)Nc2ccccc2C(=O)Nc2cccc(C(F)(F)F)c2)c(C(F)F)n1` [compound 18]: inhibition was half-maximal at 130 µM (IC50).
